No end group written: not given here.
Columns and labels:
Format in all cases: cell-based, human
[1] = system: SW579 cells of thyroid cancer; assay: transwell migration test; settings: 24 h
[2] = system: A549 cells of lung cancer; assay: transwell migration test; settings: 24 h
[3] = system: UOK262 cells of kidney cancer; assay: transwell migration test; settings: 24 h
[4] = system: A431 cells of skin cancer; assay: transwell migration test; settings: 24 h
[5] = system: TE13 cells of esophageal squamous cell carcinoma; assay: transwell migration test; settings: 24 h
[6] = system: MDA-MB-231 cells of breast cancer; assay: transwell migration test; settings: 24 h
[7] = system: SCC4 cells of head and neck cancer; assay: transwell migration test; settings: 24 h
[8] = system: MGC803 cells of stomach cancer; assay: cells; settings: 1 to 32 μM, vs negative control, dose-dependent
Protocol: (§1) After SCC4 cells of head and neck cancer, SW579 cells of thyroid cancer, A549 cells of lung cancer, TE13 cells of esophageal squamous cell carcinoma, MGC803 cells of stomach cancer, MDA-MB-231 cells of breast cancer, UOK262 cells of kidney cancer and A431 cells of skin cancer of human were cultured in a 37 DEG C. 5% CO2 incubator until the density was 90%, they were digested and collected by trypsin, the cells were re-suspended in a culture solution and counted under a microscope, the concentration of the cells was adjusted to 3.0×10^4 cells/mL, and the cell suspension was inoculated to 96-well plates, 100 μL per well, and cultured in a 37 DEG C. 5% CO2 incubator overnight. After the cells were completely adherent, different doses of micropeptides HMMW I to IX were added as drug groups, taxol was used as a positive control group, and the culture solution without any drug was used as a blank control group. They were diluted with the culture solution till predetermined concentrations. The diluted solutions were added to 96-well plates, respectively, 100 μL per well, and incubated in a 37 DEG C. 5% CO2 incubator for 48 h. 20 μL of 5 mg/mL MTT was added to each well of the 96-well plates, and the culture was continued for 4 h. The culture medium was sucked away, and 100 μL of DMSO was added to each well for dissolution. Absorbance was detected by ELIASA at detection wavelength 570 nm and reference wavelength 630 nm, and proliferation inhibition (PI) was calculated according to Formula PI (%)=1−drug group/negative group. The test was independently repeated three times. The results obtained from the test were expressed with mean±SD and statistical t test was done. *P<0.05 means significant difference, and **P<0.01 means very significant difference.

[9] = system: SW579 cells of thyroid cancer; assay: cells; settings: 1 to 32 μM, vs negative control, dose-dependent
Protocol: as §1

[10] = system: A549 cells of lung cancer; assay: cells; settings: 1 to 32 μM, vs negative control, dose-dependent
Protocol: as §1

[11] = system: UOK262 cells of kidney cancer; assay: cells; settings: 1 to 32 μM, vs negative control, dose-dependent
Protocol: as §1

[12] = system: A431 cells of skin cancer; assay: cells; settings: 1 to 32 μM, vs negative control, dose-dependent
Protocol: as §1

[13] = system: TE13 cells of esophageal squamous cell carcinoma; assay: cells; settings: 1 to 32 μM, vs negative control, dose-dependent
Protocol: as §1

[14] = system: MDA-MB-231 cells of breast cancer; assay: cells; settings: 1 to 32 μM, vs negative control, dose-dependent
Protocol: as §1

[15] = system: SCC4 cells of head and neck cancer; assay: cells; settings: 1 to 32 μM, vs negative control, dose-dependent
Protocol: as §1

MERAGVPGFSPRRSSVEAKMQSTSCSVRKSSTVTAWPAVVLLLSWGQRRGG-OH [HMMW-I]
migration inhibition rate ([1]; dose 1 μM): 19.81%
migration inhibition rate ([1]; dose 4 μM): 51.03%
migration inhibition rate ([1]; dose 16 μM): 70.98%
migration inhibition rate ([2]; dose 1 μM): 35.00%
migration inhibition rate ([2]; dose 4 μM): 53.95%
migration inhibition rate ([2]; dose 16 μM): 73.46%
migration inhibition rate ([3]; dose 1 μM): 15.39%
migration inhibition rate ([3]; dose 4 μM): 42.38%
migration inhibition rate ([3]; dose 16 μM): 71.47%
migration inhibition rate ([4]; dose 1 μM): 33.19%
migration inhibition rate ([4]; dose 4 μM): 55.17%
migration inhibition rate ([4]; dose 16 μM): 73.22%
migration inhibition rate ([5]; dose 1 μM): 23.76%
migration inhibition rate ([5]; dose 4 μM): 42.29%
migration inhibition rate ([5]; dose 16 μM): 68.32%
migration inhibition rate ([6]; dose 1 μM): 28.06%
migration inhibition rate ([6]; dose 4 μM): 50.34%
migration inhibition rate ([6]; dose 16 μM): 75.38%
migration inhibition rate ([7]; dose 1 μM): 17.85%
migration inhibition rate ([7]; dose 4 μM): 42.97%
migration inhibition rate ([7]; dose 16 μM): 77.00%
inhibition of proliferation [8]: significantly inhibit
inhibition of proliferation [9]: significantly inhibit
inhibition of proliferation [10]: significantly inhibit
inhibition of proliferation [11]: significantly inhibit
inhibition of proliferation [12]: significantly inhibit
inhibition of proliferation [13]: significantly inhibit
inhibition of proliferation [14]: significantly inhibit
inhibition of proliferation [15]: significantly inhibit

— patent US12565522B2, “Micropeptide HMMW and application thereof” (NANJING ANJI BIOTECHNOLOGY CO., LTD., priority 2019, dated 2026)
